Source: a melting point compilation (Tetko et al.; mined from patent text by program, amines drawn as free bases though some values may be those of a salt)

| SMILES | melting point [°C] |
| --- | --- |
| Cc1noc(NS(=O)(=O)c2ccc(Br)cc2)c1Br | 146 to 149 |
| COC(=O)C1=Cc2cc(Br)ccc2N(C(=O)OC)CC1 | 135 to 136 |
| CC(N)(C=CCP(=O)(O)O)C(=O)O (centres undefined) | 225 to 226 |
| COC(=O)c1nc2sc(CC(C)C)c(C)c2c(=O)[nH]1 | 173 to 175 |
| N#CC1(C#N)C2C=CC(C2)C1(Cl)Cl (centres undefined) | 161 |
| CC(=O)OC(C)(C)c1nnc(-c2ccc3ncn(-c4ccc(OC(F)(F)F)cc4)c3c2)o1 | 150 to 151 |
| N#Cc1ccc(C#CCN2CCc3nc(N)sc3CC2)cc1 | 174 to 176 |
| Cc1cc(/C=[N+](\[O-])C(C)C)cc(C)c1O | 201 to 203 |
| CCOc1ccc([N+](=O)[O-])c(NC2CCOCC2)c1 | 117 |
| O=S(=O)(O)CCCNc1cccc(O)c1 | > 250 |
| CS(=O)(=O)CC(O)(Cn1cncn1)C(F)(F)C(F)(F)C(F)(F)C(F)(F)F (centres undefined) | 106 to 109 |
| S=c1nc2ccc(Cl)cn2c(=S)n1-c1ccc(Cl)cn1 | 131 to 132 |
| CN(C)c1ccc2c(c1)C(C)(C)C1(C=Cc3cc([N+](=O)[O-])ccc3S1)N2C (centres undefined) | 166 to 167 |
| CCCc1c(C)[nH]c(C(=O)OCC)c1C | 104 to 106 |
| CCN1C(=O)C(C)(C)C(=O)N(C)c2cc(OCCCN3C(=O)Cc4ccccc43)ccc21 | 146 to 149 |
| CCCc1ccc(-c2[nH]nc3c2C(=O)c2c(NC(C)=O)cccc2-3)cc1 | 269 |
| CCOC(CCc1c(N(C(C)=O)C(C)=O)nc(NC(C)=O)[nH]c1=O)OCC | 126 to 137 |
| COc1ccc(N2CCN(c3c(C)c(C)c4c(c3C)C(N3CCCc5ccccc53)C(C)(C)O4)CC2)cc1 (centres undefined) | 188 to 190 |
| CCCn1c(CCOC)nc2c(N)nc3cc(OC4CCN(C(=O)C(C)C)CC4)ccc3c21 | 165 to 166 |
| Nc1cc(F)c(F)cc1S(N)(=O)=O | 137 to 142 |
| CCCCCS(=O)(=O)NC(=O)C(Cc1ccc(OCCOC)cc1Oc1ncc(C(F)(F)F)cc1Cl)OC (centres undefined) | 76 to 78 |

| SMILES | melting point [°C] |
| --- | --- |
| COc1ccc(C#Cc2cc(Cl)cc3c2OC(C(F)(F)F)C(C(=O)O)=C3)cc1 (centres undefined) | 218 to 219 |
| Cc1nnc2n1-c1sc(CCC(=O)N3CCOCC3)cc1C(c1ccccc1Cl)=NC2C (centres undefined) | 162 to 163 |
| CC1(NC(=O)C(F)(F)F)CN(c2cc3c(cc2F)c(=O)c(C(=O)O)cn3-c2ccc(F)cc2)C1 | 146 to 151 |
| COc1ccc(-c2cncc(C#N)c2N(C)c2ccc3[nH]ccc3c2)cc1OC | 224 to 226 |
| CNS(=O)(=O)NCCNC(=O)[C@@H](C[C@H](O)[C@H](C)NC(=O)OC(C)(C)C)C(C)C | 75 to 95 |
| CCCc1c(OCCCOc2ccc(-c3cc[nH]n3)c(OC)c2CCC)ccc2c1OC(C(=O)O)CC2 (centres undefined) | 156 to 158 |
| Cc1ccc(NC(=O)c2ccc(CN3CCN(CCO)CC3)c(C(F)(F)F)c2)cc1Nc1nccc(-c2cncnc2)n1 | 188 to 192 |
| CCOC(=O)C(C)Oc1ccc(-c2ccc(CCNC(=O)c3cc(Cl)ccc3OC)cc2)cc1 (centres undefined) | < 20 |
| CCCCON=C(C(=O)OCC)c1csc(N)n1 | 126 to 128 |
| C#CCOc1c(Cl)cc(Cl)cc1C(=O)O | 163 to 164 |
| N#CCc1nc2c(s1)Cc1cc(Cl)ccc1-2 | 134 |
| CCCCCCCCCCCCNC=C1C(=O)ON=C1C | 57 |
| C=C(C)C(=O)NC(C)C | 89 |
| COc1ccc(S(=O)(=O)Nc2c(C)c(C)c3c(c2C)C(c2ccc(C(C)C)cc2)C(C)(C)O3)cc1 (centres undefined) | 206 to 208 |
| Cc1cc(Br)cnc1CCCCNc1nccc(=O)[nH]1 | 109 to 113 |
| CN1C(=O)CC[C@]2(C)c3ccc(-c4ccc(F)cc4F)cc3CC[C@@H]12 | 108 to 112 |
| CCCN(CCC)[C@H]1Cc2c[nH]c3ccc(-c4cccnc4)c(c23)C1 | 185 to 186 |
| CCOC(=O)c1cnn(-c2ccc(OCC(C)(C)C(=O)OC)c(C#N)c2)c1 | 95 to 96 |
| COc1cc(CCCCC#CCCCC#CCO)c(O)c2ccccc12 | 85 to 87 |
| COc1cccc(OC)c1C(=O)Oc1cc([N+](=O)[O-])cc([N+](=O)[O-])c1O | 217 to 218 |
| CC(C)(C)c1cc(-c2nn(CCCO)c3ncccc23)cc(C(C)(C)C)c1O | 143 to 144 |

| SMILES | melting point [°C] |
| --- | --- |
| O=C(OCc1ccccc1)C(C(=O)N1CC2C(=O)CCC(c3ccccc3)(c3ccccc3)C2C1)c1ccccc1 (racemic) | 210 |
| CC(O)c1ccc(Cc2cn(-c3ccc(F)cc3)c3ncccc3c2=O)cc1 (centres undefined) | 197 to 198 |
| CCOC(=O)/C=C/c1ccc(OCCOC)cc1OCc1ccc(Cl)cc1Cl | 101 |
| CC12CCC(C(=O)O)=CC1=CCC1C2CCC2(C)C(C(=O)N(C(=O)NC3CCCCC3)C3CCCCC3)CCC12 (centres undefined) | 253 to 255 |
| CCc1cc(-c2ccc(F)cc2)c(O)cc1OC(CC)Oc1cc(NC(=O)CCCC(=O)N2CCOCC2)ccc1CCC(=O)O (centres undefined) | 78 to 80 |
| Cc1noc(NS(=O)(=O)c2cccc3nsnc23)c1Br | 177 to 179 |
| Oc1ccc(CCCC2OCCO2)cc1 | 67 to 68 |
| COC(=O)c1[nH]c(=O)n(C(=O)NCCCN2CCN(c3ccccc3OC)CC2)c1-c1ccc(F)c(F)c1 | 122 to 124 |
| CCc1ccc2oc(C(=O)Nc3ccc(-c4ccc(S(=O)(=O)NC(C(=O)OC)C(C)C)cc4)cc3)c(C)c2c1OC(C)C (centres undefined) | 182 to 184 |
| CCCCCCCCCCOCc1ccc(CO)cc1 | 20 to 31 |
| COc1ccc(C(=O)N2c3ccccc3C(Nc3ccc(Br)cc3)CC2C)cc1OC (centres undefined) | 173 to 175 |
| COC1(c2cccc(OCc3ccc4ccc(F)cc4c3)c2)CC(C)OC(C)C1 (centres undefined) | 77 |
| CC(C)N1CCN(Cc2cc(NC(=O)Nc3ccc(Oc4cc(Cl)ncn4)cc3)cc(C(F)(F)F)c2)CC1 | 101 |
| Cc1nc(-n2cnn(Cc3ccc(F)cc3)c2=O)sc1C(=O)NCc1cc[nH]n1 | 178 to 179 |
| CC(C)(C)OC(=O)CC(NC(=O)C1CCCN2C(=O)CCC(NC(=O)c3ccccc3)C(=O)N12)C(=O)COC(=O)c1c(Cl)cccc1Cl (centres undefined) | 102 to 107 |
| NCC(=O)Nc1cccc(C(N)=O)c1 | 139 to 140 |
| O=C(c1cccs1)C1C(=O)N(C(=O)NS(=O)(=O)Cl)c2ccc(Cl)cc21 (centres undefined) | 166 to 169 |
| COc1ccc2c(c1)CN(C(=O)CN1CCOCC1)N=C2Cc1c(Cl)cncc1Cl | 180 to 182 |
| N#Cc1ccc2c(c1)S(=O)(=O)c1ccc(F)cc1C2=O | 260 |
| CC1(Cc2ccc(Br)cc2)C(=O)N(c2cc(Cl)cc(Cl)c2)c2ccccc21 (centres undefined) | 129 to 130 |

Next, values leading:

| melting point [°C] | SMILES |
| --- | --- |
| 76 to 77 | OCc1ccc2c(Br)cccc2c1 |
| 136 | CN1CCC(C(=O)OC2c3ccccc3C(=O)N2c2ccc3ccc(Cl)nc3n2)CC1 (centres undefined) |
| 143 | CCOC(=O)Nc1ccc(C(c2ccccc2)n2ccnc2)cc1CO (centres undefined) |
| 162 to 163 | O=C(c1ccccc1)N1CC(=O)N2CCc3ccccc3C2C1 (centres undefined) |
| > 270 | NC(Cc1ccc(O)cc1)CN1CCN(c2ccccc2)CC1 (centres undefined) |
| > 330 | CNC(=O)c1nc(-c2cccnc2)nc2c1[nH]c(=O)n2-c1ccccc1 |
| 126 to 127 | C/C(=C\CO)c1ccc(OCc2nc(-c3ccccc3)oc2C)cc1 |
| 36 to 44 | CCOC(=O)C(C)Oc1ccc(OCc2ccccc2)cc1 (centres undefined) |
| 268 to 270 | Nc1ccc2c(=O)n3c(nc2c1)C(=Cc1ccccc1)CC3 |
| 76 to 79 | O=C(c1ccccc1)N1CCC(CSc2ccccc2)CC1 |
| 193 to 195 | O=C(NNS(=O)(=O)c1ccccc1)c1ccc(I)cc1 |
| 65 to 66 | CC(=O)COc1ccc(Cl)cc1Cc1ccccc1 |
| 156 to 159 | O=C1CC2(CCO1)c1ccccc1Oc1ccccc12 |
| 100 to 105 | CONC(=O)c1ccccc1SCc1ccccc1 |
| > 300 | COc1ccc(-c2[nH]nc3c2C(=O)c2c(NC(=O)NNC(=O)c4ccccc4)cccc2-3)cc1 |
| 124 to 125 | Clc1cc(CCc2ccccn2)c2oc(-c3cnc4ccccc4c3)nc2c1 |
| 91.2 to 94 | CCC(Cc1ccccc1-c1ccccc1)C(=O)O (centres undefined) |
| 63 | O=Cc1csc(Oc2ccccc2)n1 |
| 124 | O=C(O)c1ccc(OCCCCO)cc1 |

| melting point [°C] | SMILES |
| --- | --- |
| 160 to 166 | O=C1C(c2cccc(O)c2)CCCCN1Cc1ccccc1 (centres undefined) |
| 69.5 to 70.5 | OC(CCCCCOc1cccc(Cl)c1)c1cccc(OCc2ccc3ccccc3n2)c1 (centres undefined) |
| 161 | Cc1c(C(=O)NCc2ccccc2)nc2n1CCc1ccccc1C2OC1CCN(C)CC1 (centres undefined) |
| 130 | CCOC(=O)c1c(N2CCN(C(=O)c3cccs3)CC2)c2cc(F)cnc2n(Cc2ccccc2)c1=O |
| 228 to 230 | COC(=O)Nc1nc(-c2ccccc2)c(-c2nc3ccccc3c(=O)n2-c2ccccc2OC)s1 |
| 192 to 193 | Cc1nsc2nc3ccccc3n12 |
| 114 to 116 | COc1c(OCc2ccccc2)cnc(CNc2nc(C)nc(C)c2Cl)c1C |
| 80 to 82 | Cc1ccc2c(c1)cc(C(=O)OCc1ccccc1)n2CC(=O)OC(C)(C)C |
| 115 | CNCCCOc1ccc(S(=O)(=O)c2[nH]c3ccccc3c2C(C)C)cc1 |
| 93 to 95 | CC(C)N1CC(CN(C)C)N(C)c2ccccc2C1=O (centres undefined) |
| 107 to 109 | O=C(O)CCc1ccccc1Cc1ccc(Cl)cc1 |
| 118 | CN1C(=O)N(Cc2ccccc2)CC1(CCO)c1ccc(Cl)c(Cl)c1 (centres undefined) |
| 182 to 186 | COc1cc(OCCCN2CCC[C@H]2C)ccc1-c1ccc(=O)[nH]n1 |
| 93 to 96 | [N-]=[N+]=CC(=O)OC/C=C/c1ccc(NC(=O)OCc2ccccc2)cc1F |
| 127 | COc1ccc2c(c1)Sc1ccc(SC)cc1C(=O)C2 |
| 99 to 102 | COc1cc(OC)nc(Oc2cccc3c2C(=O)OC3OCC#N)n1 (centres undefined) |
| 94 | CC1=C(c2ccccc2)C(=O)N(C(C)(C)C(=O)C2CCCCC2)CO1 |
| 208 to 209 | CCOC(=O)NC(=O)Nc1ccc(Cl)cc1C(=O)c1ccccc1F |
